From patent US6329363A, “Cephalosporin antibiotics” (Eli Lilly and Company, priority 1998, dated 2001)
Converted amounts (≈) assume the structure as drawn.

Assays:
S.aureus ATCC 29213 = assay: MIC, in vitro activity vs. S.aureus ATCC 29213; assay type: cell-based, Staphylococcus aureus; parameters: unit not given beside the values; settings: Incubated at 37° C. overnight
Procedure: (§1) Table 2 summarizes the minimal inhibitory concentrations (MIC's) at which illustrative formula I compounds and cephalothin inhibit certain microorganisms associated with mastitis, such as Staphylococcus aureus 10092 (Newbould strain).
(§2) ^a Incubated at 37° C. overnight

S.aureus 174 C = assay: MIC, in vitro activity vs. S.aureus 174 C; assay type: cell-based, Staphylococcus aureus; parameters: unit not given beside the values; settings: Incubated at 37° C. overnight
Procedure: as §1, §2

S.aureus F1C = assay: MIC, in vitro activity vs. S.aureus F1C; assay type: cell-based, Staphylococcus aureus; parameters: unit not given beside the values; settings: Incubated at 37° C. overnight
Procedure: as §1, §2

[1] = system: Streptococcus uberis 150 L; assay: MIC, in vitro activity vs. Streptococcus uberis 150 L; assay type: cell-based; parameters: unit not given beside the values; settings: Incubated at 37° C. overnight
Procedure: as §1, §2

[2] = system: Streptococcus uberis 166 L; assay: MIC, in vitro activity vs. Streptococcus uberis 166 L; assay type: cell-based; parameters: unit not given beside the values; settings: Incubated at 37° C. overnight
Procedure: as §1, §2

Streptococcus agalactiae = assay: MIC, in vitro activity vs. Streptococcus agalactiae; assay type: cell-based; parameters: unit not given here; settings: Incubated at 37° C. overnight
Procedure: as §1, §2

[3] = system: pasteurella multocida 108E (bovine); assay: MIC against Gram-negative organisms: pasteurella multocida 108E (bovine); assay type: cell-based; settings: Incubated at 37° C. overnight; unit assumed
Procedure: (§3) The formula I compounds are also active against certain Gram-negative species.
as §2

[4] = system: pasteurella multocida ATCC 12945; assay: MIC against Gram-negative organisms: pasteurella multocida ATCC 12945; assay type: cell-based; settings: Incubated at 37° C. overnight; unit assumed
Procedure: as §3, §2

[5] = system: pasteurella multocida 1051 (swine); assay: MIC against Gram-negative organisms: pasteurella multocida 1051 (swine); assay type: cell-based; settings: Incubated at 37° C. overnight; unit assumed
Procedure: as §3, §2

[6] = system: pasteurella multocida 10,102 (bovine); assay: MIC against Gram-negative organisms: pasteurella multocida 10,102 (bovine); assay type: cell-based; settings: Incubated at 37° C. overnight; unit assumed
Procedure: as §3, §2

[7] = system: Pasteurella haemolytica 114F (bovine); assay: MIC against Gram-negative organisms: Pasteurella haemolytica 114F (bovine); assay type: cell-based; settings: Incubated at 37° C. overnight; unit assumed
Procedure: as §3, §2

[8] = system: Pasteurella haemolytica 128K (bovine); assay: MIC against Gram-negative organisms: Pasteurella haemolytica 128K (bovine); assay type: cell-based; settings: Incubated at 37° C. overnight; unit assumed
Procedure: as §3, §2

[9] = system: Pasteurella haemolytica 129R (bovine); assay: MIC against Gram-negative organisms: Pasteurella haemolytica 129R (bovine); assay type: cell-based; settings: Incubated at 37° C. overnight; unit assumed
Procedure: as §3, §2

Salmonella typhimurium = assay: MIC against Gram-negative organisms: Salmonella typhimurium; assay type: cell-based; settings: Incubated at 37° C. overnight; unit assumed
Procedure: as §3, §2

Escherichia coli = assay: MIC against Gram-negative organisms: Escherichia coli; assay type: cell-based; settings: Incubated at 37° C. overnight; unit assumed
Procedure: as §3, §2

[10] = system: Staphylococcus aureus 10092 (Newbould strain); assay: MIC, in vitro activity vs. S.aureus 10092; assay type: cell-based; parameters: unit not given beside the values; settings: Incubated at 37° C. overnight
Procedure: as §1, §2

[11] = system: Strepcococcus dysgalactiae; assay: MIC, in vitro activity vs. Streptococcus dysgalactiae; assay type: cell-based; parameters: unit not given here; settings: Incubated at 37° C. overnight
Procedure: as §1, §2

[12] = system: Staphylococcus aureus 10092 (Newbould); assay: Efficacy in induced Staphylococcus aureus mastitis model in lactating goats; assay type: in vivo; settings: 8 halves per compound, 2 consecutive milkings 12 hours apart, approximately 25 mg/5 mL dose in peanut oil, from 36 hours post-challenge
Text: Sixteen lactating goats were selected based on the absence of Staphylococcus aureus in pre-challenge milk cultures. Maintenance ration was provided to the animals throughout the study. The goats were milked twice each day using a portable goat milker.
Milk samples were collected during the morning milking. One day prior to challenge, milk culture samples were collected from each half of the test animals to determine if there was a pre-existing infection. Additionally, a sample was collected from each half for Somatic Cell Count (SCC) determination. A milk culture sample and a sample for SCC were collected from each half 24 hours post-challenge and on Days +4 to +6, +8, +11, +13, and +15.
Udder scoring was performed during each milking wing table:
General health observations and body temperature were recorded once a day following milking during the challenge and treatment periods.
Milk samples were submitted for analysis for SCC using an electronic somatic cell counting system.
Milk culture samples were assayed for bacterial culture by plating 1.0 mL and 0.1 mL of the milk sample directly onto duplicate blood agar plates. Additionally, dilutions 10^-1 of the milk sample were plated. Plates were incubated overnight at 37° C.
Staphylococcus aureus 10092 (Newbould) was used as the challenge strain. The challenge culture was grown in Tryptic Soy Broth (TSB) from a lyovial stock overnight (16 hours) at 37° C. TSB (100 mL) was inoculated with 1 mL of the overnight culture and incubated at 37° C. with shaking for 4 hours. The culture was centrifuged at 9000 rpm for 10 minutes at 10° C.; supernatant was removed and the pellet was resuspended in phosphate buffered saline (PBS). Optimum O.D. reading at 650 nm was approximately 0.035. A 10-fold dilution series was prepared with saline to determine the CFU/mL, plating 10^-5, 10^-6, and 10^-7 dilutions onto duplicate blood agar plates. The 10^-7 dilution (approximately 10 CFU/mL) was used for the challenge material, yielding a challenge of 50 CFU/half with a 5-mL infusion.
Sixteen goats were used for the trial. During a one day pre-challenge period, milk samples were collected and temperatures were taken during the morning milking. Milk/udder evaluations were documented during the morning and afternoon milkings.
Staphylococcus aureus 10092 was infused into both halves in each of the goats. The goats were challenged following the morning milking and milked in the afternoon on the day of challenge. The challenge inoculum volume was 5 mL/half containing approximately 50 CFU S. aureus.
For the 24 hr post-challenge period milk samples were collected during the morning milking, and milk/udder evaluations made during the morning and afternoon milking.
Treatment was started at 36 hours post-challenge. Milk samples were collected for culture and SCC 24 hours post-challenge, prior to the morning milking, and the treatment period started following the afternoon milking.
Eight halves (4 goats) each were treated for 2 consecutive milkings 12 hours apart, following milking. Each designated compound was formulated in peanut oil with […] of compound per 5 g of formulation to give approximately 25 mg/5 mL dose.
Following treatment, the goats were milked and observed for 15 days. Milk samples were collected on Days +4 to +6, +8, +11, +13, and +15 to determine if the infection had cleared.
Establishment of mastitis was determined by bacterial culturing, severity of udder scoring, somatic cell count results, and body temperature.
On Days +2 to +6, milk samples were collected for a calorimetric assay to determine whether the antibiotic was still present in the milk.

Mastitis in Cows = assay: Efficacy in mastitis in lactating cows; assay type: in vivo; settings: three trials, 450 mmoles/quarter/dose for two doses
Procedure: Compound 1 was administered to lactating cows in three trials using methods analogous to those used in the goat model described in Example 13. A total of 43 quarters were treated with Compound 1, and 36 quarters were treated with cephapirin (Cefa-Lak). Both compounds were administered at 450 mmoles/quarter/dose for two doses. Compound 1 effectively treated 27 out of 43 quarters for an overall cure rate of 63%, whereas cephapirin effectively treated 18 out of 36 quarters for an overall cure rate of only 50%.

CC(=O)OCC1=C(C(=O)O)N2C(=O)[C@@H](NC(=O)Cc3cccs3)[C@H]2SC1 [Cephalothin, reference compound]
MIC vs. S.aureus ATCC 29213 (S.aureus ATCC 29213): 0.25 | MIC vs. S.aureus 174 C (S.aureus 174 C): 0.25 | MIC vs. S.aureus F1C (S.aureus F1C): 0.25 | MIC vs. Streptococcus uberis 150 L [1]: 0.125 | MIC vs. Streptococcus uberis 166 L [2]: 0.0625 | MIC vs. Streptococcus agalactiae (Streptococcus agalactiae): 0.125 | MIC, pasteurella multocida 108E (bovine) [3]: 0.5 µg/mL (≈ 1.26 µM) | MIC, pasteurella multocida ATCC 12945 [4]: 0.25 µg/mL (≈ 0.631 µM) | MIC, pasteurella multocida 1051 (swine) [5]: 0.25 µg/mL (≈ 0.631 µM) | MIC, pasteurella multocida 10,102 (bovine) [6]: 0.5 µg/mL (≈ 1.26 µM) | MIC, Pasteurella haemolytica 114F (bovine) [7]: 1 µg/mL (≈ 2.52 µM) | MIC, Pasteurella haemolytica 128K (bovine) [8]: 0.5 µg/mL (≈ 1.26 µM) | MIC, Pasteurella haemolytica 129R (bovine) [9]: 1 µg/mL (≈ 2.52 µM) | MIC, Salmonella typhimurium (Salmonella typhimurium): 4 µg/mL (≈ 10.1 µM) | MIC, Escherichia coli (Escherichia coli): 8 µg/mL (≈ 20.2 µM)

Cc1nnc(SCC2=C(C(=O)O)N3C(=O)[C@@H](NC(=O)COc4c(F)c(F)c(F)c(F)c4F)[C@H]3SC2)s1 [Compound 1]
MIC vs. S.aureus ATCC 29213 (S.aureus ATCC 29213): 0.25 | MIC vs. S.aureus 174 C (S.aureus 174 C): 0.25 | MIC vs. S.aureus 10092 [10]: 0.25 | MIC vs. S.aureus F1C (S.aureus F1C): 0.5 | MIC vs. Streptococcus uberis 150 L [1]: 0.25 | MIC vs. Streptococcus uberis 166 L [2]: 0.25 | MIC vs. Streptococcus agalactiae (Streptococcus agalactiae): 0.25 | MIC vs. Strepcococcus dysgalactiae [11]: 0.125 | MIC, pasteurella multocida 108E (bovine) [3]: 0.25 µg/mL (≈ 0.44 µM) | MIC, pasteurella multocida ATCC 12945 [4]: 0.25 µg/mL (≈ 0.44 µM) | MIC, pasteurella multocida 1051 (swine) [5]: 0.25 µg/mL (≈ 0.44 µM) | MIC, pasteurella multocida 10,102 (bovine) [6]: 0.25 µg/mL (≈ 0.44 µM) | MIC, Pasteurella haemolytica 114F (bovine) [7]: 8 µg/mL (≈ 14.1 µM) | MIC, Pasteurella haemolytica 128K (bovine) [8]: 4 µg/mL (≈ 7.04 µM) | MIC, Pasteurella haemolytica 129R (bovine) [9]: 4 µg/mL (≈ 7.04 µM) | MIC, Salmonella typhimurium (Salmonella typhimurium): ≤ 128 µg/mL | MIC, Escherichia coli (Escherichia coli): ≤ 128 µg/mL | % Bacteriologic Cures [12]: 71% | overall cure rate (Mastitis in Cows): 63% | quarters effectively treated (Mastitis in Cows): 27 out of 43

Cc1nnc(SCC2=C(C(=O)O)N3C(=O)[C@@H](NC(=O)CSc4ccc(C(F)(F)F)cc4)[C@H]3SC2)s1 [Compound 2]
MIC vs. S.aureus ATCC 29213 (S.aureus ATCC 29213): 0.25 | MIC vs. S.aureus 174 C (S.aureus 174 C): 0.125 | MIC vs. S.aureus 10092 [10]: 0.125 | MIC vs. S.aureus F1C (S.aureus F1C): 0.25 | MIC vs. Streptococcus uberis 150 L [1]: 0.125 | MIC vs. Streptococcus uberis 166 L [2]: 0.125 | MIC vs. Streptococcus agalactiae (Streptococcus agalactiae): 0.125 | MIC vs. Strepcococcus dysgalactiae [11]: 0.0625 | % Bacteriologic Cures [12]: 83%

Cc1nnc(SCC2=C(C(=O)O)N3C(=O)[C@@H](NC(=O)CSc4c(F)c(F)c(F)c(F)c4F)[C@H]3SC2)s1 [Compound 3]
MIC vs. S.aureus ATCC 29213 (S.aureus ATCC 29213): 0.125 | MIC vs. S.aureus 174 C (S.aureus 174 C): 0.0625 | MIC vs. S.aureus 10092 [10]: 0.625 | MIC vs. S.aureus F1C (S.aureus F1C): 0.125 | MIC vs. Streptococcus uberis 166 L [2]: 0.0156 | MIC vs. Streptococcus agalactiae (Streptococcus agalactiae): 0.0156 | MIC vs. Strepcococcus dysgalactiae [11]: 0.0156 | % Bacteriologic Cures [12]: 50%

Cc1nnc(SCC2=C(C(=O)O)N3C(=O)[C@@H](NC(=O)CSc4ccc(S(=O)(=O)C(F)(F)F)cc4)[C@H]3SC2)s1 [Compound 4]
MIC vs. S.aureus ATCC 29213 (S.aureus ATCC 29213): 0.0625 | MIC vs. S.aureus 174 C (S.aureus 174 C): 0.0312 | MIC vs. S.aureus 10092 [10]: 0.0312 | MIC vs. S.aureus F1C (S.aureus F1C): 0.125 | MIC vs. Streptococcus agalactiae (Streptococcus agalactiae): 0.0156 | % Bacteriologic Cures [12]: 71%

Cc1nnc(SCC2=C(C(=O)O)N3C(=O)[C@@H](NC(=O)CSc4c(F)c(F)c(C(F)(F)F)c(F)c4F)[C@H]3SC2)s1 [Compound 5]
MIC vs. S.aureus ATCC 29213 (S.aureus ATCC 29213): 0.0625 | MIC vs. S.aureus 174 C (S.aureus 174 C): 0.0625 | MIC vs. S.aureus 10092 [10]: 0.0625 | MIC vs. S.aureus F1C (S.aureus F1C): 0.125 | MIC vs. Streptococcus uberis 150 L [1]: 0.0156 | MIC vs. Streptococcus agalactiae (Streptococcus agalactiae): 0.0156 | MIC vs. Strepcococcus dysgalactiae [11]: 0.0625 | % Bacteriologic Cures [12]: 33%
